Here are results for 68 compounds from US12421225B2, “Heteroaromatic amide derivative and medicament containing the same” (KAKEN PHARMACEUTICAL CO., LTD., priority 2018, dated 2025).

The target of this experiment is human Nav1.7 (Homo sapiens (Human), UniProt Q15858). Nature of the experiment: Human Nav1.7 inhibitory activity evaluation (automated patch clamp QPatch16X, HEK293A cells stably expressing human Nav1.7 and human Navβ1). Conditions: human Nav1.7, automated patch clamp. The experiment is classed as cell-based. Put shortly:
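QPatch16X whole-cell recordings at room temperature from HEK293A cells stably expressing human Nav1.7 with Navβ1, CsF-based internal solution, pH 7.4 external, 0.1% DMSO. From −100 mV holding, protocol included a 15 s hold at a potential inactivating ~30-40% of channels; IC50 from inward current at the second −10 mV pulse.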

Sequence of human Nav1.7 (Q15858 whole entry): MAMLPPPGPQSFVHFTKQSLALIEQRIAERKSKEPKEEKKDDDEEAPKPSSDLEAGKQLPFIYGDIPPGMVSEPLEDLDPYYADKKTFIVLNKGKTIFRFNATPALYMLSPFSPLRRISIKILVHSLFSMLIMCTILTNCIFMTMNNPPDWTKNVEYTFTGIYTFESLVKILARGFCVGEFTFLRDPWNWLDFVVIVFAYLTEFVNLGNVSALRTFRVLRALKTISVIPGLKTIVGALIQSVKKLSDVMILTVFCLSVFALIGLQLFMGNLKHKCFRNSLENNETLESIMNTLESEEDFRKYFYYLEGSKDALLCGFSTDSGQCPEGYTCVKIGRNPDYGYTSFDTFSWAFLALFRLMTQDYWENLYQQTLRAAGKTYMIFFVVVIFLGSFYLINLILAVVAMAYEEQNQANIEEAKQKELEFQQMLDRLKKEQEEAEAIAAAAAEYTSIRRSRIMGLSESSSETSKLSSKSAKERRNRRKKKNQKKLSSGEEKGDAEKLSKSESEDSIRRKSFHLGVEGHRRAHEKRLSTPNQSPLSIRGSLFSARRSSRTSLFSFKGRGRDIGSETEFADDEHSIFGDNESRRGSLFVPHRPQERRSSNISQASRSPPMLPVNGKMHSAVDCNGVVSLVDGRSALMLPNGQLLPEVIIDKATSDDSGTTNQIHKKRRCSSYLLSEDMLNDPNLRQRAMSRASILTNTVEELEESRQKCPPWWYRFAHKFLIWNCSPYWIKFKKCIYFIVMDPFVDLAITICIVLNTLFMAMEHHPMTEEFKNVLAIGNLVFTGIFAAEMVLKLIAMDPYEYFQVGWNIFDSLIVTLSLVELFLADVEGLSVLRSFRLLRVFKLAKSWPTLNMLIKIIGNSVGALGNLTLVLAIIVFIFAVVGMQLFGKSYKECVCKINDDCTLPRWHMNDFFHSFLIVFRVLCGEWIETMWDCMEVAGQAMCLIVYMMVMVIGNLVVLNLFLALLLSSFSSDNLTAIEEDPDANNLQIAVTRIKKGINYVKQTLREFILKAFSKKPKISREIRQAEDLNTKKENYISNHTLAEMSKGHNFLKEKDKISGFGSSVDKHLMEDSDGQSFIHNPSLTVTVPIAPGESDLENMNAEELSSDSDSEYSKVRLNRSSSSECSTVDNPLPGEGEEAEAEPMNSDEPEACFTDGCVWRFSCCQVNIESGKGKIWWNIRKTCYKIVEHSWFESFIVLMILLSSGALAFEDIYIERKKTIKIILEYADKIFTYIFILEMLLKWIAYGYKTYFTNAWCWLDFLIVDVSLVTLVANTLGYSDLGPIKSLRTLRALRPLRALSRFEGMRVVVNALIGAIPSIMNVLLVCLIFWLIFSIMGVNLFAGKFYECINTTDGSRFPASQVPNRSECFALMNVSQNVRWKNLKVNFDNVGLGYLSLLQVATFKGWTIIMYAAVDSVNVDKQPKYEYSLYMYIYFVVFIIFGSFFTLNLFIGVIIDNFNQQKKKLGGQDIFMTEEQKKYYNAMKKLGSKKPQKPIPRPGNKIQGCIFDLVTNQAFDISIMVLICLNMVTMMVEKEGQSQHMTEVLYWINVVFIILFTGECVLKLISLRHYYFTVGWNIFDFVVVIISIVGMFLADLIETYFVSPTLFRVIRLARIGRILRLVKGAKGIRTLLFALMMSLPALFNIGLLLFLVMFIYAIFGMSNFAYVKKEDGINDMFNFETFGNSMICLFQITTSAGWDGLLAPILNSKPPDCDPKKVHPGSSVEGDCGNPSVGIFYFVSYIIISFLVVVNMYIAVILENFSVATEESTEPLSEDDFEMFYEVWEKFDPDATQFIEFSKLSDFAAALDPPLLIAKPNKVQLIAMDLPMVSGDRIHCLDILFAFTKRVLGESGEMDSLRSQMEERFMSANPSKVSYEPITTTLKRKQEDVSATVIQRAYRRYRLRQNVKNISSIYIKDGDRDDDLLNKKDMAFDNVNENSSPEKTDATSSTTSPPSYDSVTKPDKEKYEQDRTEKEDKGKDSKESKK
Sequence of human Nav1.7 (Q07699 19-218 partner): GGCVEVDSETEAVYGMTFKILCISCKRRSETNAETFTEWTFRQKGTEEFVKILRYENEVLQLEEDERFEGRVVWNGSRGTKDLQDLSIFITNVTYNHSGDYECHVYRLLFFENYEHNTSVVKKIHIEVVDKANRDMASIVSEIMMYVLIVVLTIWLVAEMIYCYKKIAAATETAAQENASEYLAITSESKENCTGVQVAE

Usually IC50 stands for the concentration needed to halve the response being measured. Read a low IC50 as higher potency. On to `CC1Oc2cc(C(=O)N[C@H]3COc4ccc(Cl)cc4C3)nn2CC1(F)F` (some centres unmarked) [Example 385], for which the IC50 was below 10000 nM. Then `O=C(N[C@H]1COc2ccc(Cl)cc2C1)c1cc2n(n1)CCC(C1CC1)O2` (some centres unmarked) [Example 387], with below 1000 nM; and `N#Cc1ccc2c(c1)C[C@@H](NC(=O)c1cc3n(n1)CCC(C1CCC1)O3)CO2` (some centres unmarked) [Example 388], with below 1000 nM.

Take `N#Cc1ccc2c(c1)C[C@@H](NC(=O)c1cc3n(n1)CCC(C#Cc1ccccc1)O3)CO2` (some centres unmarked) [Example 390]: the 50% inhibitory concentration (IC50) is below 10000 nM. The result for `CC(C)C1CCn2nc(C(=O)N[C@H]3COc4ccc(C#N)cc4C3)cc2O1` (some centres unmarked) [Example 393] reads below 10000 nM. As for `COC(C)(C)C#CC1CCn2nc(C(=O)N[C@H]3COc4ccc(C#N)cc4C3)cc2O1` (some centres unmarked) [Example 394], the 50% inhibitory concentration (IC50) was below 10000 nM. `O=C(N[C@H]1COc2ccc(Cl)cc2C1)c1cc2n(n1)CCC(CC1CCOCC1)O2` (some centres unmarked) [Example 395] came in with a 50% inhibitory concentration (IC50) below 1000 nM. Regarding `C=Cc1ccc2c(c1)C[C@@H](NC(=O)c1cc3n(n1)CCC(C(F)(F)F)O3)CO2` (some centres unmarked) [Example 396], the IC50 was below 1000 nM. The result for `O=C(N[C@H]1COc2ccc(CCOCC(F)(F)F)cc2C1)c1cc2n(n1)CCC(C(F)(F)F)O2` (some centres unmarked) [Example 397] reads below 1000 nM; that for `COC(C)(C)C#Cc1ccc2c(c1)C[C@@H](NC(=O)c1cc3n(n1)CCC(C(F)(F)F)O3)CO2` (some centres unmarked) [Example 398], below 10000 nM; that for `O=C(N[C@H]1COc2ccc(COC3CCC3)cc2C1)c1cc2n(n1)CCC(C(F)(F)F)O2` (some centres unmarked) [Example 399], below 1000 nM.

Take `CC1(C)CCn2nc(C(=O)N[C@H]3COc4ccc(CCOC(F)(F)F)cc4C3)cc2O1` [Example 403]: the half-inhibitory concentration (IC50) was below 1000 nM. Then `O=C(N[C@H]1COc2ccc(Cl)cc2C1)c1cc2n(n1)CCC(CC(F)F)O2` (some centres unmarked) [Example 404], with below 1000 nM; and `O=C(N[C@H]1COc2ccc(C3CC3)cc2C1)c1cc2n(n1)CCC(C(F)F)O2` (some centres unmarked) [Example 405], with below 1000 nM. Then `O=C(N[C@H]1COc2ccc(Cl)cc2C1)c1cc2n(n1)CCC(C#CC1CC1)O2` (some centres unmarked) [Example 406], with below 1000 nM; and `CCOC(F)C1CCn2nc(C(=O)N[C@H]3COc4ccc(Cl)cc4C3)cc2O1` (some centres unmarked) [Example 409], with below 1000 nM; and `N#Cc1ccc2c(c1)C[C@@H](NC(=O)c1cc3n(n1)CCC(COCC1CCC1)O3)CO2` (some centres unmarked) [Example 410], with below 1000 nM. Then `O=C(N[C@H]1COc2ccc(Cl)cc2C1)c1cc2n(n1)CCC(COCC1CCOCC1)O2` (some centres unmarked) [Example 413], with below 1000 nM; and `O=C(c1cc2n(n1)CCC(COCC1COC1)O2)N(CC1COC1)[C@H]1COc2ccc(-c3ccccn3)cc2C1` (some centres unmarked) [Example 414], with below 10000 nM. Regarding `O=C(N[C@H]1COc2ccc(Cl)cc2C1)c1cc2n(n1)CCC1(CCOCC1)O2` [Example 416], the IC50 is below 10000 nM. Then `N#Cc1ccc2c(c1)C[C@@H](NC(=O)c1cc3n(n1)CCC(C(O)C(F)(F)F)O3)CO2` (some centres unmarked) [Example 417], with below 10000 nM.

Take `N#Cc1ccc2c(c1)C[C@@H](NC(=O)c1cc3n(n1)CCC(COCCC(F)(F)F)O3)CO2` (some centres unmarked) [Example 418]: the IC50 was below 10000 nM.

Regarding `CC1(COCC2CC2)CCn2nc(C(=O)N[C@H]3COc4ccc(C#N)cc4C3)cc2O1` (some centres unmarked) [Example 419], the IC50 is below 10000 nM. The result for `O=C(N[C@H]1COc2ccc(Cl)cc2C1)c1cc2n(n1)CCC(COC(F)(F)F)O2` (some centres unmarked) [Example 420] reads below 1000 nM. Then `N#Cc1ccc2c(c1)C[C@@H](NC(=O)c1cc3n(n1)CCC(CSCC(F)(F)F)O3)CO2` (some centres unmarked) [Example 423], with below 1000 nM; and `N#Cc1ccc2c(c1)C[C@@H](NC(=O)c1cc3n(n1)CCC(CSCC(F)(F)F)O3)CO2` (some centres unmarked) [Example 424], with below 10000 nM. Then `O=C(N[C@H]1COc2ccc(-c3cnn(CC(F)(F)F)c3)cc2C1)c1cc2n(n1)CCC(COCC1CC1)O2` (some centres unmarked) [Example 430], with below 1000 nM; and `O=C(N[C@H]1COc2ccc(C(F)(F)F)cc2C1)c1cc2n(n1)CCC(CCOC(F)F)O2` (some centres unmarked) [Example 433], with below 1000 nM. Regarding `N#Cc1ccc2c(c1)C[C@@H](NC(=O)c1cc3n(n1)CCC(COCC1(C(F)(F)F)CC1)O3)CO2` (some centres unmarked) [Example 434], the 50% inhibitory concentration (IC50) is below 1000 nM.

Compound `O=C(N[C@H]1COc2ccc(-c3cnccn3)cc2C1)c1cc2n(n1)CCC(COCC1(C(F)(F)F)CC1)O2` (some centres unmarked) [Example 435] returned a 50% inhibitory concentration (IC50) below 1000 nM. `C#Cc1ccc2c(c1)C[C@@H](NC(=O)c1cc3n(n1)CCC(COCC(F)(F)F)O3)CO2` (some centres unmarked) [Example 436] yielded a half-inhibitory concentration (IC50) below 1000 nM. Then `O=C(N[C@H]1COc2ccc(COCC(F)(F)F)cc2C1)c1cc2n(n1)CCC(COC1CCC1)O2` (some centres unmarked) [Example 438], with below 1000 nM; and `N#Cc1ccc2c(c1)C[C@@H](NC(=O)c1cc3n(n1)CCC(COC1CC(F)C1)O3)CO2` (some centres unmarked) [Example 439], with below 10000 nM; and `O=C(N[C@H]1COc2ccc(COCC(F)(F)F)cc2C1)c1cc2n(n1)CCC(CN1CC(F)(F)C1)O2` (some centres unmarked) [Example 440], with below 10000 nM. Then `O=C(N[C@H]1COc2ccc(CC(F)(F)F)cc2C1)c1cc2n(n1)CCC(COCC(F)(F)F)O2` (some centres unmarked) [Example 441], with below 1000 nM.

As for `O=C(N[C@H]1COc2ccc(Cl)cc2C1)c1cc2n(n1)CCC(COCC(F)(F)F)O2` (some centres unmarked) [Example 442], the IC50 is below 1000 nM. Then `CC1CCn2nc(C(=O)N[C@H]3COc4ccc(Cl)cc4C3)c(-c3ccccc3)c2O1` (some centres unmarked) [Example 444], with below 1000 nM; and `Cc1c(C(=O)N[C@H]2COc3ccc(Cl)cc3C2)nn2c1OC(C)(C)C2` [Example 446], with below 10000 nM; and `O=C(N[C@H]1COc2ccc(Cl)cc2C1)c1cc2n(n1)CC(C(F)(F)COCC1CC1)O2` (some centres unmarked) [Example 449], with below 1000 nM. Then `CCN(CC1Cn2nc(C(=O)N[C@H]3COc4ccc(C#N)cc4C3)cc2O1)CC(F)(F)F` (some centres unmarked) [Example 452], with below 10000 nM; and `O=C(N[C@H]1COc2ccc(Cl)cc2C1)c1cc2n(n1)CC(Cn1cccn1)O2` (some centres unmarked) [Example 453], with below 10000 nM.

As for `N#Cc1ccc2c(c1)C[C@@H](NC(=O)c1cc3n(n1)CC(CCn1cc(C(F)(F)F)cn1)O3)CO2` (some centres unmarked) [Example 455], the IC50 is below 1000 nM. Regarding `CC1(C)CN(CC2Cn3nc(C(=O)N[C@H]4COc5ccc(C(F)(F)F)cc5C4)cc3O2)CCO1` (some centres unmarked) [Example 458], the IC50 was below 1000 nM. Then `O=C(N[C@H]1COc2ccc(C3CC3)cc2C1)c1cc2n(n1)CC(COCC1CC1)O2` (some centres unmarked) [Example 463], with below 1000 nM; and `N#Cc1ccc2c(c1)C[C@@H](NC(=O)c1cc3n(n1)CC(CCOCC1(C(F)(F)F)CC1)O3)CO2` (some centres unmarked) [Example 465], with below 1000 nM. The result for `O=C(N[C@H]1COc2ccc(-c3cnccn3)cc2C1)c1cc2n(n1)CC(CCOCC1(C(F)(F)F)CC1)O2` (some centres unmarked) [Example 467] reads below 1000 nM.

The compound `O=C(N[C@H]1COc2ccc(Cl)cc2C1)c1cc2n(n1)CC(COCC1CC1)O2` (some centres unmarked) [Example 469] displayed an IC50 below 1000 nM.

Compound `O=C(N[C@H]1COc2ccc(CC(F)F)cc2C1)c1cc2n(n1)CC(CCOC1CCC1)O2` (some centres unmarked) [Example 471] gave a half-inhibitory concentration (IC50) below 1000 nM. Then `O=C(N[C@H]1COc2ccc(COCC(F)(F)F)cc2C1)c1cc2n(n1)CC(CCOC1CCC1)O2` (some centres unmarked) [Example 472], with below 1000 nM.

Turning to `Cn1cc(-c2ccc3c(c2)C[C@@H](NC(=O)c2cc4n(n2)CC(CCOC2CCC2)O4)CO3)cn1` (some centres unmarked) [Example 473], the IC50 was below 1000 nM.

`O=C(N[C@H]1COc2ccc(-c3cnccn3)cc2C1)c1cc2n(n1)CC(CCOC1CCC1)O2` (some centres unmarked) [Example 474]: the IC50 is below 1000 nM. As to `Cc1cnc(-c2ccc3c(c2)C[C@@H](NC(=O)c2cc4n(n2)CC(CCOC2CCC2)O4)CO3)cn1` (some centres unmarked) [Example 475], the half-maximal inhibitory concentration (IC50) was below 1000 nM. Consider `O=C(N[C@H]1COc2ccc(C(F)(F)F)cc2C1)c1cc2n(n1)CC(CCN1CCC(F)(F)C1)O2` (some centres unmarked) [Example 476], for which the 50% inhibitory concentration (IC50) is below 1000 nM. Then `O=C(N[C@H]1COc2ccc(CC(F)F)cc2C1)c1cc2n(n1)CC(CCOCC(F)F)O2` (some centres unmarked) [Example 478], with below 1000 nM. Then `O=C(N[C@H]1COc2ccc(CC(F)(F)F)cc2C1)c1cc2n(n1)CC(CCOCC(F)F)O2` (some centres unmarked) [Example 479], with below 1000 nM. The result for `O=C(N[C@H]1COc2ccc(Cl)cc2C1)c1cc2n(n1)CCCC(c1ccccc1)O2` (some centres unmarked) [Example 480] reads below 10000 nM. In turn, `O=C(N[C@H]1COc2ccc(COCC(F)(F)F)cc2C1)c1cc2n(n1)CCC(OCC(F)(F)F)CO2` (some centres unmarked) [Example 482] gave a concentration for half-maximal inhibition (IC50) below 1000 nM.

`N#Cc1ccc2c(c1)C[C@@H](NC(=O)c1cc3n(n1)CCC(C(F)(F)F)CO3)CO2` (some centres unmarked) [Example 483] yielded a concentration for half-maximal inhibition (IC50) below 10000 nM. The result for `COc1cccc(-c2c(C(=O)N[C@H]3COc4ccc(C(F)(F)F)cc4C3)nn3c2COCC3)n1` [Example 484] reads below 1000 nM. The result for `O=C(N[C@H]1COc2ccc(C(F)(F)F)cc2C1)c1nn2c(c1-c1cccc(Cl)n1)COCC2` [Example 485] reads below 1000 nM; that for `O=C(N[C@H]1COc2ccc(C(F)(F)F)cc2C1)c1nn2c(c1-c1ccn[nH]1)OCCC2` [Example 486], below 1000 nM. The result for `N#Cc1ccc2c(c1)C[C@@H](NC(=O)c1cc3n(n1)CCN(CC1CCC1)C3)CO2` [Example 498] reads below 1000 nM. Take `CC(C)(c1ccccn1)N1CCn2nc(C(=O)N[C@H]3COc4ccc(C#N)cc4C3)cc2C1` [Example 501]: the IC50 was below 10000 nM. Then `N#Cc1ccc2c(c1)C[C@@H](NC(=O)c1cc3n(n1)CCN(C1(CC(F)(F)F)CC1)C3)CO2` [Example 503], with below 10000 nM; and `O=C(N[C@H]1COc2ccc(COCC(F)(F)F)cc2C1)c1cc2n(n1)CCN(CCC1CC1)C2` [Example 505], with below 1000 nM; and `O=C(NC1COc2ccccc2C1)c1cc2n(n1)CCN(c1ccc(F)cc1)C2` (centres unmarked) [Example 508], with below 1000 nM.

Regarding `O=C(N[C@H]1COc2ccc(Cl)cc2C1)c1nn2c(c1-c1ccccc1)CN(CC(F)(F)F)CC2` [Example 509], the 50% inhibitory concentration (IC50) is below 10000 nM. The result for `O=C(NC1COc2ccccc2C1)c1cc2n(n1)CCN(C(=O)CCc1ccccc1)C2` (centres unmarked) [Example 510] reads below 10000 nM.
